PubChem BioAssay (NCI)
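Five concentrations, 48 hours, 96-well plates. TGI is the concentration that stops growth completely.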

What was measured:
Assay in all cases: NCI-60 cell line screen, 48 h
[1] = system: PC-3 prostate
[2] = system: ACHN renal
[3] = system: SK-OV-3 ovarian
[4] = system: CCRF-CEM leukemia
[5] = system: SNB-19 CNS
[6] = system: A549 NSCLC
[7] = system: IGROV1 ovarian
[8] = system: MDA-N
[9] = system: HL-60(TB) leukemia
[10] = system: EKVX NSCLC
[11] = system: TK-10 renal
[12] = system: NCI-H226 lung
[13] = system: UACC-257 melanoma
[14] = system: NCI-H23 lung
[15] = system: UO-31 renal
[16] = system: SK-MEL-5 melanoma
[17] = system: 786-0 renal
[18] = system: BT-549 breast
[19] = system: MALME-3M melanoma
[20] = system: OVCAR-4 ovarian
[21] = system: SN12C renal
[22] = system: RPMI-8226 leukemia
[23] = system: U251 CNS
[24] = system: HT29 colon
[25] = system: SK-MEL-2 melanoma
[26] = system: SNB-75 CNS
[27] = system: HCT-15 colon
[28] = system: NCI-H460 lung
[29] = system: SF-295 CNS
[30] = system: MDA-MB-231 breast
[31] = system: MOLT-4 leukemia
[32] = system: RXF 393 renal
[33] = system: UACC-62 melanoma
[34] = system: OVCAR-5 ovarian
[35] = system: KM12 colon
[36] = system: COLO 205 colon
[37] = system: SK-MEL-28 melanoma
[38] = system: NCI/ADR-RES ovarian
[39] = system: HCT-116 colon
[40] = system: T-47D breast
[41] = system: SF-539 CNS
[42] = system: HOP-92 NSCLC
[43] = system: MCF7 breast
[44] = system: A498 renal
[45] = system: SW-620 colon
[46] = system: DU-145 prostate
[47] = system: M14 melanoma
[48] = system: K-562 leukemia
[49] = system: OVCAR-3 ovarian
[50] = system: OVCAR-8 ovarian
[51] = system: HS 578T breast
[52] = system: LOX IMVI melanoma
[53] = system: HOP-62 NSCLC
[54] = system: MDA-MB-435
[55] = system: SR leukemia
[56] = system: SF-268 CNS
[57] = system: CAKI-1 renal
[58] = system: HCC-2998 colon
[59] = system: NCI-H522 lung

`CC(C(=O)N1c2ccccc2Sc2ccccc21)N1c2ccccc2Sc2ccccc21` (stereo not drawn) was tested, and the TGI [1] was greater than 100 µM, the TGI [2] was greater than 100 µM and the TGI [3] was greater than 100 µM. The TGI [4] was greater than 100 µM, the TGI [5] was greater than 100 µM and the TGI [6] was greater than 100 µM. It also gave a TGI [7] greater than 100 µM, a TGI [8] greater than 100 µM and a TGI [9] greater than 100 µM. It also gave a TGI [10] greater than 100 µM, a TGI [11] greater than 100 µM and a TGI [12] greater than 100 µM. It also gave a TGI [13] greater than 100 µM, a TGI [14] greater than 100 µM and a TGI [15] greater than 100 µM. It also gave a TGI [16] greater than 100 µM, a TGI [17] greater than 100 µM and a TGI [18] greater than 100 µM. It also gave a TGI [19] greater than 100 µM, a TGI [20] greater than 100 µM and a TGI [21] greater than 100 µM. For the same compound, the TGI [22] was greater than 100 µM, the TGI [23] was greater than 100 µM and the TGI [24] was greater than 100 µM. For the same compound, the TGI [25] was greater than 100 µM, the TGI [26] was greater than 100 µM and the TGI [27] was greater than 100 µM. For the same compound, the TGI [28] was greater than 100 µM, the TGI [29] was greater than 100 µM and the TGI [30] was greater than 100 µM. For the same compound, the TGI [31] was greater than 100 µM, the TGI [32] was greater than 100 µM and the TGI [33] was greater than 100 µM. For the same compound, the TGI [34] was greater than 100 µM, the TGI [35] was greater than 100 µM and the TGI [36] was greater than 100 µM. For the same compound, the TGI [37] was greater than 100 µM, the TGI [38] was greater than 100 µM and the TGI [39] was greater than 100 µM. The TGI [40] was greater than 100 µM, the TGI [41] was greater than 100 µM and the TGI [42] was greater than 100 µM. The TGI [43] was greater than 100 µM, the TGI [44] was greater than 100 µM and the TGI [45] was greater than 100 µM. It also gave a TGI [46] greater than 100 µM, a TGI [47] greater than 100 µM and a TGI [48] greater than 100 µM. It also gave a TGI [49] greater than 100 µM, a TGI [50] greater than 100 µM and a TGI [51] greater than 100 µM. It also gave a TGI [52] greater than 100 µM, a TGI [53] greater than 100 µM and a TGI [54] greater than 100 µM. For the same compound, the TGI [55] was greater than 100 µM and the TGI [56] was greater than 100 µM.

Work on `Nc1nc(Cl)cc(NCC2(CO)CC(OCc3ccccc3)C2)n1` (stereo not drawn) yielded a TGI [57] greater than 100 µM, a TGI [1] greater than 100 µM and a TGI [2] greater than 100 µM. For the same compound, the TGI [3] was greater than 100 µM, the TGI [4] was greater than 100 µM and the TGI [5] was greater than 100 µM. The TGI [6] was greater than 100 µM, the TGI [7] was greater than 100 µM and the TGI [8] was greater than 100 µM. It also gave a TGI [9] greater than 100 µM, a TGI [10] greater than 100 µM and a TGI [11] greater than 100 µM. It also gave a TGI [12] greater than 100 µM, a TGI [13] greater than 100 µM and a TGI [14] greater than 100 µM. For the same compound, the TGI [15] was greater than 100 µM, the TGI [16] was greater than 100 µM and the TGI [17] was greater than 100 µM. It also gave a TGI [18] greater than 100 µM, a TGI [19] greater than 100 µM and a TGI [20] greater than 100 µM. For the same compound, the TGI [21] was greater than 100 µM, the TGI [22] was greater than 100 µM and the TGI [23] was greater than 100 µM. It also gave a TGI [24] greater than 100 µM, a TGI [25] greater than 100 µM and a TGI [26] of 85.2 µM. The TGI [27] was greater than 100 µM, the TGI [28] was greater than 100 µM and the TGI [29] was greater than 100 µM. It also gave a TGI [30] greater than 100 µM, a TGI [32] greater than 100 µM and a TGI [33] greater than 100 µM. It also gave a TGI [34] greater than 100 µM, a TGI [35] greater than 100 µM and a TGI [36] greater than 100 µM. For the same compound, the TGI [37] was greater than 100 µM, the TGI [38] was greater than 100 µM and the TGI [39] was greater than 100 µM. The TGI [58] was greater than 100 µM, the TGI [40] was 41.9 µM and the TGI [41] was greater than 100 µM. It also gave a TGI [59] greater than 100 µM, a TGI [42] greater than 100 µM and a TGI [43] greater than 100 µM. It also gave a TGI [44] of 86.5 µM, a TGI [45] greater than 100 µM and a TGI [46] greater than 100 µM. The TGI [48] was greater than 100 µM, the TGI [49] was greater than 100 µM and the TGI [50] was greater than 100 µM. For the same compound, the TGI [51] was greater than 100 µM, the TGI [52] was greater than 100 µM and the TGI [53] was greater than 100 µM. For the same compound, the TGI [54] was greater than 100 µM, the TGI [55] was greater than 100 µM and the TGI [56] was 74.8 µM.
